Patent US20140005163A1 (NOVARTIS AG, priority 2010, published 2014)

Legend:
PI3K alpha = target: T1, PI3K alpha (Homo sapiens, UniProt P42336); assay: PI3K alpha kinase assay (Kinase-Glo luminescence); type: biochemical
T1 construct: p85(iSH2) fusion partner (see partner chain) (N); His tag (C); made in house; host or cells: baculovirus; Tn5 (Trichoplusia ni) or TiniPro insect cells
Method in brief: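 PI3K alpha at 10 nM with 1 μM ATP and 10 μg/mL phosphatidylinositol in 10 mM TRIS pH 7.5, 3 mM MgCl2, 50 mM NaCl, 0.05% CHAPS, 1 mM DTT, 60 min at room temperature. Remaining ATP read by Kinase-Glo luminescence. IC50 by 4-parameter fit over 8 concentrations.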

PI3K beta = target: T2, PI3K beta (Homo sapiens, UniProt P42338); assay: PI3K beta kinase assay (Kinase-Glo luminescence); type: biochemical
T2 construct: for the full-length p110-b subunit are generated and fused by overlapping PCR; p85(iSH2) fusion partner (see partner chain) (N); His tag (C); made in house; host or cells: baculovirus; Tn5 (Trichoplusia ni) or TiniPro insect cells
Method in brief: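 Residual ATP after a 60 min room-temperature reaction is quantified by Kinase-Glo luminescence. Enzyme: 25 nM BV-949 (p85 iSH2–linker–full-length p110β); substrates 1 μM ATP, 10 μg/mL PI; buffer Tris pH 7.5, MgCl2, NaCl, CHAPS, DTT. Eight concentrations per compound, four-parameter logistic IC50.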

PI3K delta = target: T3, PI3K delta (Homo sapiens, UniProt O00329); assay: PI3K delta kinase assay (Kinase-Glo luminescence); type: biochemical
T3 construct: for the full-length p110-d subunit are generated and fused by overlapping PCR; p85(iSH2) fusion partner (see partner chain) (N); His tag (C); made in house; host or cells: baculovirus; Tn5 (Trichoplusia ni) or TiniPro insect cells
Method in brief: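 Construct BV-1060, p85 iSH2–linker–full-length p110δ, His-tagged, at 10 nM, with 1 μM ATP and 10 μg/mL phosphatidylinositol in pH 7.5 Tris, 3 mM MgCl2, 50 mM NaCl, 0.05% CHAPS. Run 60 min at room temperature; remaining ATP read by Kinase-Glo luminescence; IC50 from 4-parameter logistic fit of 8 concentrations.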

mTOR = target: T4, mTOR (Homo sapiens, UniProt P42345); assay: Biochemical assay for m-TOR by TR-FRET; conditions: 8 μM ATP, 400 nM GFP-4EBP1, 0.5 nM mTOR
T4 construct: purchased Invitrogen Corporation (Carlsbad/CA, USA) PV4753
Method in brief: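 TR-FRET detection of pThr46 on GFP-4EBP1 (400 nM final) using Tb3+-labelled antibody (0.5 nM), added with EDTA to stop reactions. Reactions ran at rt with 0.5 nM mTOR and 8 μM ATP (final) in HEPES pH 7.5 buffer containing 10 mM MnCl2.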

T4 sequence (P42345 1360-2549 limits assumed): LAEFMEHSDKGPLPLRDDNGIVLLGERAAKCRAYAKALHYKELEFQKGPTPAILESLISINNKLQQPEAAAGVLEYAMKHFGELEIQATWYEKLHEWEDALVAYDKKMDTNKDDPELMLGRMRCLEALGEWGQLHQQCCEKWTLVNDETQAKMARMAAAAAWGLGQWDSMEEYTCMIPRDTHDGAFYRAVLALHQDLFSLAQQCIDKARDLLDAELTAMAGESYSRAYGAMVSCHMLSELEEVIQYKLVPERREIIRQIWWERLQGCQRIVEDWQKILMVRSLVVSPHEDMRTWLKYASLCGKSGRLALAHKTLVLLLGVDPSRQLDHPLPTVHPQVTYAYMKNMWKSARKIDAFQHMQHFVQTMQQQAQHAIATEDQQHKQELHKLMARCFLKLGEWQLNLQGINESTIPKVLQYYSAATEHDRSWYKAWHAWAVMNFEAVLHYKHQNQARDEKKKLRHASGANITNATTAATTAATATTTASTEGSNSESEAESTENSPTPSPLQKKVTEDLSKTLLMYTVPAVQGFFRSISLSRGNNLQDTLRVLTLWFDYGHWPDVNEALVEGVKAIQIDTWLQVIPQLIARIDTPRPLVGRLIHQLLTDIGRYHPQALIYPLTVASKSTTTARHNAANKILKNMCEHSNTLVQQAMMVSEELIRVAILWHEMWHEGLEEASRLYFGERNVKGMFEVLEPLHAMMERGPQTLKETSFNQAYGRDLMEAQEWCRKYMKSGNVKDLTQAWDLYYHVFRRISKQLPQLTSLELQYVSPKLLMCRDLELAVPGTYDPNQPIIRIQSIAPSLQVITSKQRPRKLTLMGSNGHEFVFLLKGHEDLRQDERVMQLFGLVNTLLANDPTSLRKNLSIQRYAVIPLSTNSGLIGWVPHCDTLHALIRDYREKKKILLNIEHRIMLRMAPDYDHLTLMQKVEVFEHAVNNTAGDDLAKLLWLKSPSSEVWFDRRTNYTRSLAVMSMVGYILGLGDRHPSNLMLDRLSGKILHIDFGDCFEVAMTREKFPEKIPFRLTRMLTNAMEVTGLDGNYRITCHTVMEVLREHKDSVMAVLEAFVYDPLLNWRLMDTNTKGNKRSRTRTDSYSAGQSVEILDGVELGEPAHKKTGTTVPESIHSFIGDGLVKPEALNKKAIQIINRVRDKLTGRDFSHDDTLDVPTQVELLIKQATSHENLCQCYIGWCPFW
T1 sequence (P42336 with tags, fused parts or gaps limits assumed): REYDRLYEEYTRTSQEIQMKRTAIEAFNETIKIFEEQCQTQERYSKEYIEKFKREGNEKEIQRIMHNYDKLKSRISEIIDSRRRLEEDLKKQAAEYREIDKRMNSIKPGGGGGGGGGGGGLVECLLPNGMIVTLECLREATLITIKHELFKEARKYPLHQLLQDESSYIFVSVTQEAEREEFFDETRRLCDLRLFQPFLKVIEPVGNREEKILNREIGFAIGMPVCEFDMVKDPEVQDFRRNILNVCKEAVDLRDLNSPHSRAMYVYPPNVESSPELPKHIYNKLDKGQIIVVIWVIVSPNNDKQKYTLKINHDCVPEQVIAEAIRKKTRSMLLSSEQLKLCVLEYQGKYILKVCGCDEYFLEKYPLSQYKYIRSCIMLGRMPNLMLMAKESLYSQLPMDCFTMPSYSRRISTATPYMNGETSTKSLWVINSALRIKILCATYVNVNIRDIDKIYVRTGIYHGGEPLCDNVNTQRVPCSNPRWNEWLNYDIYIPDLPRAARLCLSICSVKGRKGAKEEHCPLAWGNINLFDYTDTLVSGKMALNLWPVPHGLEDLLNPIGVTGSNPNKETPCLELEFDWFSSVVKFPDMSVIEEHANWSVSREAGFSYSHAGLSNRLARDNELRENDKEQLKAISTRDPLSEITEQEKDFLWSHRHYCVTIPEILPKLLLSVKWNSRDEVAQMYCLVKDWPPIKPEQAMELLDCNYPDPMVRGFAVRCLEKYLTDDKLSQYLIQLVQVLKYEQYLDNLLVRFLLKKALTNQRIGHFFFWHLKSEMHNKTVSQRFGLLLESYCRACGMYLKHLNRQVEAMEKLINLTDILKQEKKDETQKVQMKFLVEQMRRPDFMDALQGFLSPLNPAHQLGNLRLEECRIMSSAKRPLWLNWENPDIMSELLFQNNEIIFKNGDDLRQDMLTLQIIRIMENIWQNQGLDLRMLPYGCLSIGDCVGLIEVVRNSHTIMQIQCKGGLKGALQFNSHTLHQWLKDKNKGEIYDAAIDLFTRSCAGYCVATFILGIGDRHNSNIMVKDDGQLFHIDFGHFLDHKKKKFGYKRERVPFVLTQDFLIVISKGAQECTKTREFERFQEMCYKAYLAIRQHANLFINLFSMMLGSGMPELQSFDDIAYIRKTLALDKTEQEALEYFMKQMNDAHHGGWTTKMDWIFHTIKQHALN
T2 sequence (P42338 with tags, fused parts or gaps limits assumed): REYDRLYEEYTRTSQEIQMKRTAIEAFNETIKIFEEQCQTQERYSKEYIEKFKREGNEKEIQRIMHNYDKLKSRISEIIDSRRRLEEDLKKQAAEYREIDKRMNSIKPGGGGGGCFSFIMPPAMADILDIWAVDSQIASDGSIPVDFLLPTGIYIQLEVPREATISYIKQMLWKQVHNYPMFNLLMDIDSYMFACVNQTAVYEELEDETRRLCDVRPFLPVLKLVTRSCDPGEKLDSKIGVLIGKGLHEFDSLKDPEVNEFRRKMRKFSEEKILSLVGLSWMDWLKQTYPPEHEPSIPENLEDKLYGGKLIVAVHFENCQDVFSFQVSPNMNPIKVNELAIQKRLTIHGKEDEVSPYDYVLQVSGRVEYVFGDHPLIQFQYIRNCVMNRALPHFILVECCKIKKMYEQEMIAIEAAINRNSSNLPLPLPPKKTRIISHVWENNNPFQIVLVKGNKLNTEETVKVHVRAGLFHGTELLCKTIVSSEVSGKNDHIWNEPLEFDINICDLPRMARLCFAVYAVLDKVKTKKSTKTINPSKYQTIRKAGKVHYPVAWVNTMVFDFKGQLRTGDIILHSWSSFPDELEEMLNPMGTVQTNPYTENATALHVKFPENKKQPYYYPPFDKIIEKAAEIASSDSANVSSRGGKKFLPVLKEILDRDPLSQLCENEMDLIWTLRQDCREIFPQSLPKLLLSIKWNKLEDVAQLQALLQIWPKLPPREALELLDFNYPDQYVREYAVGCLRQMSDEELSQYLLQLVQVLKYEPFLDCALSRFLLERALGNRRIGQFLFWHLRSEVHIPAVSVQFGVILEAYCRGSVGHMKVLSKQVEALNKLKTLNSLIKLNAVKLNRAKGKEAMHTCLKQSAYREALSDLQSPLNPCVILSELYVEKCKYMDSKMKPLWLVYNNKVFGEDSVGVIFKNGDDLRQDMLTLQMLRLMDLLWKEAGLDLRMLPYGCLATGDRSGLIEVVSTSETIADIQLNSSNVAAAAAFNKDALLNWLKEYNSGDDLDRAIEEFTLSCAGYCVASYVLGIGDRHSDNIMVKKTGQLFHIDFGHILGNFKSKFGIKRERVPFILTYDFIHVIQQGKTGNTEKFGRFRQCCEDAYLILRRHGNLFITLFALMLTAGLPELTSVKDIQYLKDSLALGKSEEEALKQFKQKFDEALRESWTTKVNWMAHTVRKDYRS
T3 sequence (O00329 with tags, fused parts or gaps limits assumed): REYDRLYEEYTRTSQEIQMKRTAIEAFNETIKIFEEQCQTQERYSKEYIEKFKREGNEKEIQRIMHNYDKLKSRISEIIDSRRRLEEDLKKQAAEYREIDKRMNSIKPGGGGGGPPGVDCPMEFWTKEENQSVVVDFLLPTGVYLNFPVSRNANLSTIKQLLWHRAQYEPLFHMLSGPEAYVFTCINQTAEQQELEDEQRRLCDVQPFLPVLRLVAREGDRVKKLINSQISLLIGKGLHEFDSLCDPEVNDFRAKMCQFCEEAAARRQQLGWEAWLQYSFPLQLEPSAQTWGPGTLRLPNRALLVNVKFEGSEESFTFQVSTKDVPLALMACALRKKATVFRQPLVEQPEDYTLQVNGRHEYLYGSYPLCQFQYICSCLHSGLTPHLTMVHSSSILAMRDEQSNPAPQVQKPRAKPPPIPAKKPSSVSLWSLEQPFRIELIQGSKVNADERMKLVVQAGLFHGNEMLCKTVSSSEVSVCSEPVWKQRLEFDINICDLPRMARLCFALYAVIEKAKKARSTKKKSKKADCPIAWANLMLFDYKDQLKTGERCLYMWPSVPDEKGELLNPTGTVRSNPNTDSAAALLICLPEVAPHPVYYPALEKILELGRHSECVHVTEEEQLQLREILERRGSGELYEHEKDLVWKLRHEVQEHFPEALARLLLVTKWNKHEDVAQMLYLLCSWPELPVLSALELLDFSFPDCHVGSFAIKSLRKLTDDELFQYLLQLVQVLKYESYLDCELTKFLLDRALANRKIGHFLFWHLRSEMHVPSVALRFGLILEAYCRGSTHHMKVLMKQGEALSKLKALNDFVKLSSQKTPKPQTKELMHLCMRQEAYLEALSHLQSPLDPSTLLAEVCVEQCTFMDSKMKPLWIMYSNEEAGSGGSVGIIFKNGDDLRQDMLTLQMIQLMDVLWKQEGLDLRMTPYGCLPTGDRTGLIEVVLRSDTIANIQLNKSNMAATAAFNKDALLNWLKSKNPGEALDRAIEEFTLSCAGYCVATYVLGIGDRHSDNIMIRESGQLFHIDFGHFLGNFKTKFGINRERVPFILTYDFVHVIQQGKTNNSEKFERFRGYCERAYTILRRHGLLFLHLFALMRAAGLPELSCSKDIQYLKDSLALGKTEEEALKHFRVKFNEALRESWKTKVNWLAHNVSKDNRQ

Row | Structure (SMILES) | IC50 (PI3K alpha) [nM] | IC50 (PI3K beta) [nM] | IC50 (PI3K delta) [nM] | IC50 (mTOR) [nM]
1 | CCNc1cc(-c2ccc3ncc4c(c3c2)n(-c2cn(CC)nc2C)c(=O)n4C)cnc1C [Example 87.3, 8-(5-Ethylamino-6-methyl-pyridin-3-yl)-1-(1-ethyl-3-methyl-1H-pyrazol-4-yl)-3-methyl-1,3-dihydro-imidazo[4,5-c]quinolin-2-one] | 9 | 12 | 6 | < 3
2 | CCOc1ccc(-c2ccc3ncc4c(c3c2)n(-c2c(C)nn(C)c2C)c(=O)n4C)cn1 [Example 3.3, 8-(6-Ethoxy-pyridin-3-yl)-3-methyl-1-(1,3,5-trimethyl-1H-pyrazol-4-yl)-1,3-dihydro-imidazo[4,5-c]quinolin-2-one] | 146 | 401 | 148 | 651
3 | Cc1cc(-n2c(=O)n(C)c3cnc4ccc(-c5ccc(N(C)C)nc5)cc4c32)n(C)n1 [Example 4.6, 8-(6-Dimethylamino-pyridin-3-yl)-1-(2,5-dimethyl-2H-pyrazol-3-yl)-3-methyl-1,3-dihydro-imidazo[4,5-c]quinolin-2-one] | 48 | 336 | 91 | 42
4 | CCNc1cc(-c2ccc3ncc4c(c3c2)n(-c2cn(CC)nc2C)c(=O)n4C)cnc1CO [Example 155.2, 8-(5-Ethylamino-6-hydroxymethyl-pyridin-3-yl)-1-(1-ethyl-3-methyl-1H-pyrazol-4-yl)-3-methyl-1,3-dihydro-imidazo[4,5-c]quinolin-2-one] | 14 | 17 | 22 | 12
5 | Cc1nn(C)cc1-n1c(=O)n(C)c2cnc3ccc(-c4cnc(CO)c(OC(CF)CF)c4)cc3c21 [Example 192, 1-(1,3-Dimethyl-1H-pyrazol-4-yl)-8-[5-(2-fluoro-1-fluoromethyl-ethoxy)-6-hydroxymethyl-pyridin-3-yl]-3-methyl-1,3-dihydro-imidazo[4,5-c]quinolin-2-one] | < 3 | 6 | 5 | 6
6 | CCOc1cc(-c2ccc3ncc4c(c3c2)n(-c2cn(C)nc2C)c(=O)n4C)cnc1CC [Example 187, 1-(1,3-Dimethyl-1H-pyrazol-4-yl)-8-(5-ethoxy-6-ethyl-pyridin-3-yl)-3-methyl-1,3-dihydro-imidazo[4,5-c]quinolin-2-one] | 15 | 28 | 8 | 8
7 | Cc1nn(C(C)C)cc1-n1c(=O)n(C)c2cnc3ccc(-c4cnc(N)c(CO)c4)cc3c21 [Example 169.1, 8-(6-Amino-5-hydroxymethyl-pyridin-3-yl)-1-(1-isopropyl-3-methyl-1H-pyrazol-4-yl)-3-methyl-1,3-dihydro-imidazo[4,5-c]quinolin-2-one] | 24 | 87 | 22 | < 3
8 | Cc1nn(C)cc1-n1c(=O)n(C)c2cnc3ccc(-c4cncc(N(C)C(C)C)c4)cc3c21 [Example 173, 1-(1,3-Dimethyl-1H-pyrazol-4-yl)-8-[5-(isopropyl-methyl-amino)-pyridin-3-yl]-3-methyl-1,3-dihydro-imidazo[4,5-c]quinolin-2-one] | 23 | 148 | 37 | 4
9 | CCN(C)c1ccc(-c2ccc3ncc4c(c3c2)n(-c2cn(C)nc2C)c(=O)n4C)cn1 [Example 98.1, 1-(1,3-Dimethyl-1H-pyrazol-4-yl)-8-[6-(ethyl-methyl-amino)-pyridin-3-yl]-3-methyl-1,3-dihydro-imidazo[4,5-c]quinolin-2-one] | 34 | 407 | 48 | 20

Further lines, results first:

Row | IC50 (PI3K alpha) [nM] | IC50 (PI3K beta) [nM] | IC50 (PI3K delta) [nM] | IC50 (mTOR) [nM] | Structure (SMILES)
10 | 23 | 213 | 17 | 22 | Cc1nn(C)cc1-n1c(=O)n(C)c2cnc3ccc(-c4ccc(N(C)C)nc4)cc3c21 [Example 4.5, 8-(6-Dimethylamino-pyridin-3-yl)-1-(1,3-dimethyl-1H-pyrazol-4-yl)-3-methyl-1,3-dihydro-imidazo[4,5-c]quinolin-2-one]
11 | 110 | 163 | 52 | 95 | COCc1ccc(-c2ccc3ncc4c(c3c2)n(-c2cn(C(C)C)nc2C)c(=O)n4C)cn1 [Example 105, 1-(1-Isopropyl-3-methyl-1H-pyrazol-4-yl)-8-(6-methoxymethyl-pyridin-3-yl)-3-methyl-1,3-dihydro-imidazo[4,5-c]quinolin-2-one]
12 | 236 | 203 | 118 | 566 | Cc1cnn(C)c1-n1c(=O)n(C)c2cnc3ccc(-c4cncc(OC(C)C)c4)cc3c21 [Example 58.3, 1-(2,4-Dimethyl-2H-pyrazol-3-yl)-8-(5-isopropoxy-pyridin-3-yl)-3-methyl-1,3-dihydro-imidazo[4,5-c]quinolin-2-one]
13 | 34 | 477 | 46 | 329 | CCOc1cc(-c2ccc3ncc4c(c3c2)n(-c2c(C)nn(CC(=O)N(C)C)c2C)c(=O)n4C)cnc1C [Example 85.3, 2-{4-[8-(5-Ethoxy-6-methyl-pyridin-3-yl)-3-methyl-2-oxo-2,3-dihydro-imidazo[4,5-c]quinolin-1-yl]-3,5-dimethyl-pyrazol-1-yl}-N,N-dimethyl-acetamide]
14 | 18 | 35 | 39 | 9 | Cc1nn(C)cc1-n1c(=O)n(C)c2cnc3ccc(-c4cnc(N)c(Cl)c4)cc3c21 [Example 148.2, 8-(6-Amino-5-chloro-pyridin-3-yl)-1-(1,3-dimethyl-1H-pyrazol-4-yl)-3-methyl-1,3-dihydro-imidazo[4,5-c]quinolin-2-one]
15 | 25 | 317 | 121 | 52 | CCOc1cncc(-c2ccc3ncc4c(c3c2)n(-c2cn(CC(=O)N(C)C)nc2C)c(=O)n4C)c1 [Example 56.2, 2-{4-[8-(5-Ethoxy-pyridin-3-yl)-3-methyl-2-oxo-2,3-dihydro-imidazo[4,5-c]quinolin-1-yl]-3-methyl-pyrazol-1-yl}-N,N-dimethyl-acetamide]
16 | 12 | 206 | 16 | 15 | Cc1nn(C)cc1-n1c(=O)n(C)c2cnc3ccc(-c4cnc5c(ccn5C)c4)cc3c21 [Example 116, 1-(1,3-Dimethyl-1H-pyrazol-4-yl)-3-methyl-8-(1-methyl-1H-pyrrolo[2,3-b]pyridin-5-yl)-1,3-dihydro-imidazo[4,5-c]quinolin-2-one]
17 | 249 | 988 | 821 | 335 | CNC(=O)c1ccc(-c2ccc3ncc4c(c3c2)n(-c2c(C)nn(C)c2C)c(=O)n4C)cn1 [Example 15.2, 5-[3-Methyl-2-oxo-1-(1,3,5-trimethyl-1H-pyrazo1-4-yl)-2,3-dihydro-1H-imidazo[4,5-c]quinolin-8-yl]-pyridine-2-carboxylic acid methylamide]
